Measured values published in patent publication US20240065988A1, “COMBINED USE OF KETAMINE AND RETIGABINE (EZOGABINE) FOR THE TREATMENT OF PSYCHIATRIC DISORDERS” (Yeda Research and Development Co. Ltd., priority 2021, published 2024).

System: single cells from the ventral hippocampus (vHipp)
Assay: Single-cell RNA sequencing (scRNA-seq) of the ventral hippocampus after ketamine treatment; differential expression per cell type
Conditions: for Mean-Ket / logFC / Change: Glut Neurons
[1] = Microglia, ketamine 10 mg/kg i.p. vs saline
[2] = OPCs, ketamine 10 mg/kg i.p. vs saline
[3] = Oligodendrocytes, ketamine 10 mg/kg i.p.
[4] = Oligodendrocytes, ketamine 10 mg/kg i.p. vs saline

CNC1(c2ccccc2Cl)CCCCC1=O (racemic) [ketamine, (R,S)-ketamine]
Mean-Ket (Lsm8): 1.062
logFC (Lsm8): −0.125
Change (Map1lc3b): Down
Mean-Ket (Map1lc3b): 1.349
logFC (Map1lc3b): −0.132
Change (Map4): Down
Mean-Ket (Map4): 2.794
logFC (Map4): −0.101
Change (Matr3): Down
Mean-Ket (Matr3): 1.685
logFC (Matr3): −0.160
Eef1akmt3 Mean-Ket (Microglia, ketamine 10 mg/kg i.p.): 1.718
Eef1akmt3 Change [1]: Up
Eef1akmt3 logFC [1]: 0.394
Change (Mmachc): Down
Mean-Ket (Mmachc): 2.750
logFC (Mmachc): −0.102
Change (Mrpl48): Up
Mean-Ket (Mrpl48): 1.060
logFC (Mrpl48): 0.180
Change (Mtg2): Down
Mean-Ket (Mtg2): 2.635
logFC (Mtg2): −0.091
Change (Ndufc1): Down
Mean-Ket (Ndufc1): 1.039
logFC (Ndufc1): −0.150
Change (Nedd4): Down
Mean-Ket (Nedd4): 1.358
logFC (Nedd4): −0.161
Change (Nop58): Down
Mean-Ket (Nop58): 2.645
logFC (Nop58): −0.096
Change (Nvl): Up
Mean-Ket (Nvl): 1.070
logFC (Nvl): 0.148
genes differentially expressed exclusively in one cell type (OPCs): 3
Akap5 Mean-Ket (OPCs, ketamine 10 mg/kg i.p.): 3.963
Eef1akmt3 Mean-Ket (OPCs, ketamine 10 mg/kg i.p.): 1.870
Ilf2 Mean-Ket (OPCs, ketamine 10 mg/kg i.p.): 1.310
Lrrc17 Mean-Ket (OPCs, ketamine 10 mg/kg i.p.): 3.227
Mfsd4a Mean-Ket (OPCs, ketamine 10 mg/kg i.p.): 0.916
Saa3 Mean-Ket (OPCs, ketamine 10 mg/kg i.p.): 1.654
Tmem181b-ps Mean-Ket (OPCs, ketamine 10 mg/kg i.p.): 0.055
Tmem1311 Mean-Ket (OPCs, ketamine 10 mg/kg i.p.): 0.804
Tmprss11a Mean-Ket (OPCs, ketamine 10 mg/kg i.p.): 0.015
Akap5 Change [2]: Down
Akap5 logFC [2]: −0.320
Eef1akmt3 Change [2]: Up
Eef1akmt3 logFC [2]: 0.527
Ilf2 Change [2]: Up
Ilf2 logFC [2]: 0.398
Lrrc17 Change [2]: Down
Lrrc17 logFC [2]: −0.286
Mfsd4a Change [2]: Up
Mfsd4a logFC [2]: 0.460
Saa3 Change [2]: Up
Saa3 logFC [2]: 0.404
Tmem181b-ps Change [2]: Down
Tmem181b-ps logFC [2]: −0.195
Tmem1311 Change [2]: Up
Tmem1311 logFC [2]: 0.585
Tmprss11a Change [2]: Down
Tmprss11a logFC [2]: −0.121
Change (Oaz1): Down
Mean-Ket (Oaz1): 1.200
logFC (Oaz1): −0.205
Akap5 Mean-Ket [3]: 3.517
Eef1akmt3 Mean-Ket [3]: 2.089
Gsn Mean-Ket [3]: 1.005
Ilf2 Mean-Ket [3]: 1.493
Jpt2 Mean-Ket [3]: 1.507
Lrrc17 Mean-Ket [3]: 2.805
Map3k20 Mean-Ket [3]: 2.351
Mfsd4a Mean-Ket [3]: 1.058
Mmachc Mean-Ket [3]: 3.286
Pias4 Mean-Ket [3]: 1.649
Ppp1r7 Mean-Ket [3]: 1.026
Psmb11 Mean-Ket [3]: 1.161
Saa3 Mean-Ket [3]: 1.909
Sec14l1 Mean-Ket [3]: 1.281
Slc10a7 Mean-Ket [3]: 1.538
Snhg11 Mean-Ket [3]: 2.917
Supt7l Mean-Ket [3]: 2.509
Them4 Mean-Ket [3]: 1.517
Tulp1 Mean-Ket [3]: 1.893
Upf3b Mean-Ket [3]: 3.197
Vps8 Mean-Ket [3]: 1.703
Xcr1 Mean-Ket [3]: 1.078
Zfp229 Mean-Ket [3]: 1.093
Zfp827 Mean-Ket [3]: 1.284
Akap5 Change [4]: Down
Akap5 logFC [4]: −0.393
Eef1akmt3 Change [4]: Up
Eef1akmt3 logFC [4]: 0.601
Gsn Change [4]: Up
Gsn logFC [4]: 0.254
Ilf2 Change [4]: Up
Ilf2 logFC [4]: 0.463
Jpt2 Change [4]: Up
Jpt2 logFC [4]: 0.265
Lrrc17 Change [4]: Down
Lrrc17 logFC [4]: −0.365
Map3k20 Change [4]: Up
Map3k20 logFC [4]: 0.245
Mfsd4a Change [4]: Up
Mfsd4a logFC [4]: 0.642
Mmachc Change [4]: Up
Mmachc logFC [4]: 0.154
Pias4 Change [4]: Up
Pias4 logFC [4]: 0.209
Ppp1r7 Change [4]: Up
Ppp1r7 logFC [4]: 0.231
Psmb11 Change [4]: Up
Psmb11 logFC [4]: 0.191
Saa3 Change [4]: Up
Saa3 logFC [4]: 0.574
Sec14l1 Change [4]: Up
Sec14l1 logFC [4]: 0.238
Slc10a7 Change [4]: Up
Slc10a7 logFC [4]: 0.192
Snhg11 Change [4]: Up
Snhg11 logFC [4]: 0.164
Supt7l Change [4]: Up
Supt7l logFC [4]: 0.169
Them4 Change [4]: Up
Them4 logFC [4]: 0.233
Tulp1 Change [4]: Up
Tulp1 logFC [4]: 0.207
Upf3b Change [4]: Up
Upf3b logFC [4]: 0.166
Vps8 Change [4]: Down
Vps8 logFC [4]: −0.217
Xcr1 Change [4]: Up
Xcr1 logFC [4]: 0.197
Zfp229 Change [4]: Up
Zfp229 logFC [4]: 0.199
